Measurements taken from ChEMBL document CHEMBL4627352, “New acrylamide-sulfisoxazole conjugates as dihydropteroate synthase inhibitors” (Bioorg Med Chem, 2020).
≈ marks a conversion by molar mass, not a printed value. Calls of active or inactive are those of the source. The calls are words filed in the database; no cut-off is given here.

How the values were obtained:
hTERT-BJ = assay: Cytotoxicity against human hTERT-BJ1 cells at 50 uM by acid phosphatase assay relative to control; type: cell-based
Klebsiella pneumoniae [1] = assay: Inhibition of DHPS in Klebsiella pneumoniae assessed as antibacterial activity by measuring inhibition zone at 5 mg/mL incubated for 24 hrs by disk diffusion method
[2] = test system: Syncephalastrum racemosum; assay: Inhibition of DHPS in Syncephalastrum racemosum assessed as antifungal activity by measuring inhibition zone at 5 mg/mL incubated for 48 hrs by disk diffusion method
Escherichia coli [3] = assay: Inhibition of DHPS in Escherichia coli assessed as antibacterial activity by measuring inhibition zone at 5 mg/mL incubated for 24 hrs by disk diffusion method
Streptococcus pneumoniae [4] = assay: Inhibition of DHPS in Streptococcus pneumoniae assessed as antibacterial activity by measuring inhibition zone at 5 mg/mL incubated for 24 hrs by disk diffusion method
Aspergillus fumigatus [5] = assay: Inhibition of DHPS in Aspergillus fumigatus assessed as antifungal activity by measuring inhibition zone at 5 mg/mL incubated for 48 hrs by disk diffusion method
Geotrichum candidum [6] = assay: Inhibition of DHPS in Geotrichum candidum assessed as antifungal activity by measuring inhibition zone at 5 mg/mL incubated for 48 hrs by disk diffusion method
[7] = test system: Escherichia coli ATCC 25922; assay: Inhibition of DHPS in Escherichia coli ATCC 25922 assessed as inhibition of bacterial growth incubated for 24 hrs in presence of folate precursor, pABA by microbroth dilution method
Aspergillus fumigatus [8] = assay: Potency index, ratio of sulfisoxazole MIC to compound MIC for Aspergillus fumigatus assessed as inhibition of DHPS-mediated fungal growth incubated for 48 hrs by microbroth dilution method
Geotrichum candidum [9] = assay: Inhibition of DHPS in Geotrichum candidum assessed as antifungal activity by measuring inhibition of fungal growth incubated for 48 hrs by microbroth dilution method
[10] = test system: Syncephalastrum racemosum; assay: Inhibition of DHPS in Syncephalastrum racemosum assessed as antifungal activity by measuring inhibition of fungal growth incubated for 48 hrs by microbroth dilution method
[11] = test system: Staphylococcus epidermidis; assay: Inhibition of DHPS in Staphylococcus epidermidis assessed as antibacterial activity by measuring inhibition zone at 5 mg/mL incubated for 24 hrs by disk diffusion method
Aspergillus fumigatus [12] = assay: Inhibition of DHPS in Aspergillus fumigatus assessed as antifungal activity by measuring inhibition of fungal growth incubated for 48 hrs by microbroth dilution method
Proteus vulgaris = assay: Inhibition of DHPS in Proteus vulgaris assessed as antibacterial activity by measuring inhibition zone at 5 mg/mL incubated for 24 hrs by disk diffusion method
[13] = test system: Escherichia coli ATCC 25922; assay: Inhibition of DHPS in Escherichia coli ATCC 25922 assessed as inhibition of bacterial growth incubated for 24 hrs in presence of folate dependent metabolite, methionine by microbroth dilution method
Bacillus subtilis [14] = assay: Inhibition of DHPS in Bacillus subtilis assessed as antibacterial activity by measuring inhibition zone at 5 mg/mL incubated for 24 hrs by disk diffusion method
Bacillus subtilis [15] = assay: Inhibition of DHPS in Bacillus subtilis assessed as antibacterial activity by measuring inhibition of bacterial growth incubated for 24 hrs by microbroth dilution method
Escherichia coli [16] = assay: Inhibition of DHPS in Escherichia coli assessed as antibacterial activity by measuring inhibition of bacterial growth incubated for 24 hrs by microbroth dilution method
[17] = test system: Staphylococcus epidermidis; assay: Inhibition of DHPS in Staphylococcus epidermidis assessed as antibacterial activity by measuring inhibition of bacterial growth incubated for 24 hrs by microbroth dilution method
Klebsiella pneumoniae [18] = assay: Inhibition of DHPS in Klebsiella pneumoniae assessed as antibacterial activity by measuring inhibition of bacterial growth incubated for 24 hrs by microbroth dilution method
Streptococcus pneumoniae [19] = assay: Inhibition of DHPS in Streptococcus pneumoniae assessed as antibacterial activity by measuring inhibition of bacterial growth incubated for 24 hrs by microbroth dilution method

Compound | inhibition zone (IZ) (Klebsiella pneumoniae [1]) | inhibition zone (IZ) [2] | inhibition zone (IZ) (Escherichia coli [3]) | inhibition zone (IZ) (Streptococcus pneumoniae [4]) | inhibition zone (IZ) (Aspergillus fumigatus [5]) | inhibition zone (IZ) (Geotrichum candidum [6]) | inhibition [7] | MIC (Geotrichum candidum [9]) [µg/mL] | inhibition zone (IZ) [11] | inhibition zone (IZ) (Proteus vulgaris) | inhibition [13] | inhibition zone (IZ) (Bacillus subtilis [14]) | MIC (Bacillus subtilis [15]) [µg/mL] | MIC (Escherichia coli [16]) [µg/mL] | MIC [17] [µg/mL] | MIC (Klebsiella pneumoniae [18]) [µg/mL] | MIC (Streptococcus pneumoniae [19]) [µg/mL] | other results
CCN/C(SC)=C(/C#N)C(=O)Nc1ccc(S(=O)(=O)Nc2onc(C)c2C)cc1 | – | – | – | – | – | – | – | – | – | – | – | – | – | – | – | – | – | Activity (hTERT-BJ): 1.1%
Cc1noc(NS(=O)(=O)c2ccc(NC(=O)/C(C#N)=C(/S)Nc3ccccc3)cc2)c1C | inactive | 14.3 mm | inactive | inactive | 16.8 mm | 17.1 mm | inactive | 31.2 (≈ 66.6 µM) | inactive | inactive | inactive | inactive | – | – | – | – | – | Ratio (Aspergillus fumigatus [8]): 2; MIC [10]: 125 µg/mL (≈ 266 µM); MIC (Aspergillus fumigatus [12]): 15.6 µg/mL (≈ 33.3 µM)
CCN/C(S)=C(/C#N)C(=O)Nc1ccc(S(=O)(=O)Nc2onc(C)c2C)cc1 | 16.4 mm | 13.2 mm | 14.3 mm | 13.7 mm | 12.6 mm | 17.1 mm | inactive | 15.6 (≈ 37.1 µM) | 17.3 mm | 12.6 mm | inactive | 15.4 mm | 62.5 (≈ 148 µM) | 62.5 (≈ 148 µM) | 31.2 (≈ 74.1 µM) | 62.5 (≈ 148 µM) | 62.5 (≈ 148 µM) | Activity (hTERT-BJ): 1.7%; MIC [10]: 7.81 µg/mL (≈ 18.5 µM)
Cc1noc(NS(=O)(=O)c2ccc(NC(=O)/C(C#N)=C(/S)NC34CC5CC(CC(C5)C3)C4)cc2)c1C | 16.2 mm | 13.6 mm | 13.3 mm | 16.9 mm | 14.9 mm | 14.7 mm | inactive | 125 (≈ 237 µM) | 16.2 mm | 11.7 mm | inactive | 17.4 mm | 31.2 (≈ 59.2 µM) | 62.5 (≈ 118 µM) | 62.5 (≈ 118 µM) | 62.5 (≈ 118 µM) | 31.2 (≈ 59.2 µM) | MIC (Aspergillus fumigatus [12]): 62.5 µg/mL (≈ 118 µM)
CN/C(SC)=C(/C#N)C(=O)Nc1ccc(S(=O)(=O)Nc2onc(C)c2C)cc1 | inactive | inactive | inactive | inactive | inactive | inactive | inactive | – | inactive | inactive | inactive | inactive | – | – | – | – | – | –
CC(=O)OC[C@H]1O[C@@H](S/C(Nc2ccccc2)=C(\C#N)C(=O)Nc2ccc(S(=O)(=O)Nc3onc(C)c3C)cc2)[C@H](OC(C)=O)[C@@H](OC(C)=O)[C@H]1OC(C)=O | 15.8 mm | inactive | 13.2 mm | 15.1 mm | inactive | inactive | inactive | – | 14.2 mm | 11.2 mm | inactive | 19.8 mm | 1.95 (≈ 2.44 µM) | 125 (≈ 156 µM) | 125 (≈ 156 µM) | 62.5 (≈ 78.1 µM) | 62.5 (≈ 78.1 µM) | –
CS/C(Nc1ccccc1)=C(\C#N)C(=O)Nc1ccc(S(=O)(=O)Nc2onc(C)c2C)cc1 | inactive | inactive | inactive | inactive | inactive | inactive | inactive | – | inactive | inactive | inactive | inactive | – | – | – | – | – | –
CC(=O)OC[C@H]1O[C@@H](S/C(Nc2ccccc2)=C(\C#N)C(=O)Nc2ccc(S(=O)(=O)Nc3onc(C)c3C)cc2)[C@H](OC(C)=O)[C@@H](OC(C)=O)[C@@H]1OC(C)=O | 14.2 mm | inactive | 10.6 mm | 10.6 mm | inactive | inactive | inactive | – | 18.9 mm | 8.3 mm | inactive | 12.4 mm | – | – | 15.6 (≈ 19.5 µM) | 62.5 (≈ 78.1 µM) | – | –
